Key:
Type in all cases: in vivo
[1] = test system: Geranium dissectum; assay: post-emergence test, pot trial (Examples 1-5); conditions: 28 d, PT, pelargonic acid 10880 g/ha, 16 L/ha
From the text: (§1) The expected activity of a given combination of two or three herbicides can be calculated as follows according to a calculation method by Colby (cf. COLBY, S. R.: “Calculating synergistic and antagonistic responses of herbicide combinations”, • Weeds 15, pages 20-22, 1967): • If X=% damage by herbicide (A) at an application rate of m g/ha, • Y=% damage by herbicide (B) at an application rate of n g/ha, • E=the expected damage by herbicides (A) and (B) at application rates of m and n […] and, • then for a combination:
(§2) Individual compositions comprising pelargonic acid or flazasulfuron are compared with a herbicide composition according to the invention comprising pelargonic acid and flazasulfuron.
(§3) Herbicidal activity was determined by performing a post-emergence test. […] The corresponding mixture was in the form of a spray liquor. Besides, spray liquors of individual compositions comprising pelargonic acid or flazasulfuron were used.
(§4) Tests were performed on test fields (field trials) or in pots (pot trials).

[2] = test system: Matricaria chamomilla; assay: post-emergence test, pot trial (Examples 1-5); conditions: bigger plants, 28 d, PT, pelargonic acid 10880 g/ha, 16 L/ha
From the text: as §1, §2, §3, §4

[3] = test system: Poa annua; assay: post-emergence test, pot trial (Examples 1-5); conditions: 28 d, PT; pelargonic acid 10880 g/ha, flazasulfuron 50 g/ha; 16 L/ha
From the text: as §1, §2, §3, §4

[4] = test system: Setaria pumila; assay: post-emergence test, pot trial (Examples 1-5); conditions: young plants, 28 d, PT, pelargonic acid 10880 g/ha, 16 L/ha
From the text: as §1, §2, §3, §4

[5] = test system: Trifolium repens; assay: post-emergence test, pot trial (Examples 1-5); conditions: 28 d, PT; pelargonic acid 10880 g/ha, flazasulfuron 50 g/ha; 16 L/ha
From the text: as §1, §2, §3, §4

[6] = test system: Capsella bursa-pastoris; assay: post-emergence field trial under rows of apple trees, 150-200 L water/ha (Examples 10-12)
Experimental: (§5) Herbicidal activity was determined by performing a post-emergence test. […] The corresponding mixture was in the form of a spray solution. Besides, spray solutions of individual compositions comprising pelargonic acid or flazasulfuron were used.
(§6) The spray solution was applied on plants of unwanted vegetation present on fields where perennial crops were grown.
(§7) After 5 to 88 days after application of the spray solution, the degree of damage to the unwanted vegetation is rated in % of plants of unwanted vegetation that were killed. Tests were performed on test fields (field trials).

[7] = test system: Chenopodium album; assay: as above
Experimental: as §5, §6, §7

[8] = test system: Lolium multiflorum; assay: as above
Experimental: as §5, §6, §7

[9] = test system: Poa annua; assay: as above
Experimental: as §5, §6, §7

For `CCCCCCCCC(=O)O` [Pelargonic acid, nonanoic acid], the herbicidal effect ([1]; bigger plants, flazasulfuron 50 g/ha) was 24%, the herbicidal effect ([1]; young plants, flazasulfuron 25 g/ha) was 32% and the herbicidal effect ([1]; young plants, flazasulfuron 50 g/ha) was 32%. The herbicidal effect ([2]; flazasulfuron 25 g/ha) was 0%, the herbicidal effect ([2]; flazasulfuron 50 g/ha) was 0% and the herbicidal effect [3] was 0%. It also gave a herbicidal effect ([4]; flazasulfuron 25 g/ha) of 40%, a herbicidal effect ([4]; flazasulfuron 50 g/ha) of 40% and a herbicidal effect [5] of 0%. For the same compound, the “herbicidal effect (%)” value ([6]; Capsella bursa-pastoris/6 d, 5440 g of active compound/ha) was 18%, the “herbicidal effect (%)” value ([6]; Capsella bursa-pastoris/6 d, 8160 g of active compound/ha) was 45% and the “herbicidal effect (%)” value ([6]; Capsella bursa-pastoris/6 d, 10880 g of active compound/ha) was 45%. For the same compound, the “herbicidal effect (%)” value ([6]; Capsella bursa-pastoris/16 d, 5440 g of active compound/ha) was 53%, the “herbicidal effect (%)” value ([6]; Capsella bursa-pastoris/16 d, 8160 g of active compound/ha) was 40% and the “herbicidal effect (%)” value ([6]; Capsella bursa-pastoris/16 d, 10880 g of active compound/ha) was 55%. The “herbicidal effect (%)” value ([6]; Capsella bursa-pastoris/30 d, 5440 g of active compound/ha) was 55%, the “herbicidal effect (%)” value ([6]; Capsella bursa-pastoris/30 d, 8160 g of active compound/ha) was 53% and the “herbicidal effect (%)” value ([6]; Capsella bursa-pastoris/30 d, 10880 g of active compound/ha) was 60%. The “herbicidal effect (%)” value ([6]; Capsella bursa-pastoris/57 d, 5440 g of active compound/ha) was 0%, the “herbicidal effect (%)” value ([6]; Capsella bursa-pastoris/57 d, 8160 g of active compound/ha) was 0% and the “herbicidal effect (%)” value ([6]; Capsella bursa-pastoris/57 d, 10880 g of active compound/ha) was 0%. The “herbicidal effect (%)” value ([7]; Chenopodium album/6 d, 5440 g of active compound/ha) was 20%, the “herbicidal effect (%)” value ([7]; Chenopodium album/6 d, 8160 g of active compound/ha) was 50% and the “herbicidal effect (%)” value ([7]; Chenopodium album/6 d, 10880 g of active compound/ha) was 60%. For the same compound, the “herbicidal effect (%)” value ([7]; Chenopodium album/16 d, 5440 g of active compound/ha) was 48%, the “herbicidal effect (%)” value ([7]; Chenopodium album/16 d, 8160 g of active compound/ha) was 63% and the “herbicidal effect (%)” value ([7]; Chenopodium album/16 d, 10880 g of active compound/ha) was 63%. For the same compound, the “herbicidal effect (%)” value ([7]; Chenopodium album/30 d, 5440 g of active compound/ha) was 55%, the “herbicidal effect (%)” value ([7]; Chenopodium album/30 d, 8160 g of active compound/ha) was 58% and the “herbicidal effect (%)” value ([7]; Chenopodium album/30 d, 10880 g of active compound/ha) was 70%. For the same compound, the “herbicidal effect (%)” value ([7]; Chenopodium album/57 d, 5440 g of active compound/ha) was 0%, the “herbicidal effect (%)” value ([7]; Chenopodium album/57 d, 8160 g of active compound/ha) was 0% and the “herbicidal effect (%)” value ([7]; Chenopodium album/57 d, 10880 g of active compound/ha) was 0%. For the same compound, the “herbicidal effect (%)” value ([7]; Chenopodium album/78 d, 5440 g of active compound/ha) was 0%, the “herbicidal effect (%)” value ([7]; Chenopodium album/78 d, 8160 g of active compound/ha) was 0% and the “herbicidal effect (%)” value ([7]; Chenopodium album/78 d, 10880 g of active compound/ha) was 0%. For the same compound, the “herbicidal effect (%)” value ([8]; Lolium multiflorum/5 d, 5440 g of active compound/ha) was 3%, the “herbicidal effect (%)” value ([8]; Lolium multiflorum/5 d, 10880 g of active compound/ha) was 13% and the “herbicidal effect (%)” value ([8]; Lolium multiflorum/18 d, 5440 g of active compound/ha) was 0%. For the same compound, the “herbicidal effect (%)” value ([8]; Lolium multiflorum/18 d, 8160 g of active compound/ha) was 0%, the “herbicidal effect (%)” value ([8]; Lolium multiflorum/18 d, 10880 g of active compound/ha) was 0% and the “herbicidal effect (%)” value ([8]; Lolium multiflorum/32 d, 5440 g of active compound/ha) was 0%. For the same compound, the “herbicidal effect (%)” value ([8]; Lolium multiflorum/32 d, 8160 g of active compound/ha) was 0%, the “herbicidal effect (%)” value ([8]; Lolium multiflorum/32 d, 10880 g of active compound/ha) was 0% and the “herbicidal effect (%)” value ([8]; Lolium multiflorum/61 d, 5440 g of active compound/ha) was 0%. The “herbicidal effect (%)” value ([8]; Lolium multiflorum/61 d, 8160 g of active compound/ha) was 0%, the “herbicidal effect (%)” value ([8]; Lolium multiflorum/61 d, 10880 g of active compound/ha) was 0% and the “herbicidal effect (%)” value ([8]; Lolium multiflorum/88 d, 5440 g of active compound/ha) was 0%. For the same compound, the “herbicidal effect (%)” value ([8]; Lolium multiflorum/88 d, 8160 g of active compound/ha) was 0%, the “herbicidal effect (%)” value ([8]; Lolium multiflorum/88 d, 10880 g of active compound/ha) was 0% and the “herbicidal effect (%)” value ([9]; Poa annua/6 d, 5440 g of active compound/ha) was 23%. For the same compound, the “herbicidal effect (%)” value ([9]; Poa annua/6 d, 8160 g of active compound/ha) was 40%, the “herbicidal effect (%)” value ([9]; Poa annua/6 d, 10880 g of active compound/ha) was 45% and the “herbicidal effect (%)” value ([9]; Poa annua/16 d, 5440 g of active compound/ha) was 55%. The “herbicidal effect (%)” value ([9]; Poa annua/16 d, 8160 g of active compound/ha) was 58%, the “herbicidal effect (%)” value ([9]; Poa annua/16 d, 10880 g of active compound/ha) was 60% and the “herbicidal effect (%)” value ([9]; Poa annua/30 d, 5440 g of active compound/ha) was 53%. For the same compound, the “herbicidal effect (%)” value ([9]; Poa annua/30 d, 8160 g of active compound/ha) was 55%, the “herbicidal effect (%)” value ([9]; Poa annua/30 d, 10880 g of active compound/ha) was 65% and the “herbicidal effect (%)” value ([9]; Poa annua/57 d, 5440 g of active compound/ha) was 0%. The “herbicidal effect (%)” value ([9]; Poa annua/57 d, 8160 g of active compound/ha) was 0%, the “herbicidal effect (%)” value ([9]; Poa annua/57 d, 10880 g of active compound/ha) was 0% and the “herbicidal effect (%)” value ([9]; Poa annua/78 d, 5440 g of active compound/ha) was 0%. For the same compound, the “herbicidal effect (%)” value ([9]; Poa annua/78 d, 8160 g of active compound/ha) was 0%.

From patent US20240365781A1, “SYNERGISTICALLY EFFECTIVE HERBICIDE COMPOSITION COMPRISING PELARGONIC ACID AND FLAZASULFURON” (Belchim Crop Protection NV, priority 2017, published 2024)
